Results published in ChEMBL document CHEMBL1201862, “PubChem BioAssay data set” (2004).
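Interpolation was linear, between the two tested concentrations surrounding the appropriate level; five concentrations were tested over 48 hours in 96-well plates. GI50 marks 50% less growth.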 Active and inactive are the calls of the source. Rule as the data show it: active = GI50 up to about 1.1 µM and inactive = higher.

Legend:
Test in all cases: NCI-60 cell line screen, 48 h
T47D = system: T47D
OVCAR-4 = system: OVCAR-4
HCT-116 = system: HCT-116
CCRF-CEM = system: CCRF-CEM
RXF 393 = system: RXF 393
Hs-578T = system: Hs-578T
DU-145 = system: DU-145
HT-29 = system: HT-29
CAKI-1 = system: CAKI-1
K562 = system: K562
NCI/ADR-RES = system: NCI/ADR-RES
SNB-19 = system: SNB-19
IGROV-1 = system: IGROV-1
SK-MEL-2 = system: SK-MEL-2
SK-OV-3 = system: SK-OV-3
A549 = system: A549
ACHN = system: ACHN
SK-MEL-5 = system: SK-MEL-5
NCI-H460 = system: NCI-H460

Structure (SMILES) | GI50 (T47D) | GI50 (OVCAR-4) | GI50 (HCT-116) | GI50 (CCRF-CEM) | GI50 (RXF 393) | GI50 (Hs-578T) | GI50 (DU-145) | GI50 (HT-29) | GI50 (CAKI-1) | GI50 (K562) | GI50 (NCI/ADR-RES) | GI50 (SNB-19) | GI50 (IGROV-1) | GI50 (SK-MEL-2) | GI50 (SK-OV-3) | GI50 (A549) | GI50 (ACHN) | GI50 (SK-MEL-5) | GI50 (NCI-H460)
CC(C)(C)c1ccc(O)c(C(c2ccc([N+](=O)[O-])cc2)c2cc(C(C)(C)C)ccc2O)c1 | 2.65 µM (inactive) | 1.85 µM (inactive) | 2.43 µM (inactive) | 2.98 µM (inactive) | 2.07 µM (inactive) | 3.61 µM (inactive) | 2.39 µM (inactive) | 1.87 µM (inactive) | 1.51 µM (inactive) | 2.73 µM (inactive) | 2.73 µM (inactive) | 2.41 µM (inactive) | 2.15 µM (inactive) | 1.81 µM (inactive) | 2.11 µM (inactive) | 1.86 µM (inactive) | 1.85 µM (inactive) | – | –
CC(C)CC(N)C(=O)Nc1ccc2ccccc2c1 (configuration not stated) | > 100 µM (inactive) | 9.4 µM (inactive) | > 100 µM (inactive) | > 100 µM (inactive) | > 100 µM (inactive) | > 100 µM (inactive) | > 100 µM (inactive) | > 100 µM (inactive) | 63.1 µM (inactive) | > 100 µM (inactive) | > 100 µM (inactive) | > 100 µM (inactive) | > 100 µM (inactive) | > 100 µM (inactive) | > 100 µM (inactive) | > 100 µM (inactive) | > 100 µM (inactive) | > 100 µM (inactive) | –
COC(=O)c1cc2c(o1)Sc1ccccc1NC2=O | > 100 µM (inactive) | > 100 µM (inactive) | > 100 µM (inactive) | > 100 µM (inactive) | – | 27.7 µM (inactive) | > 100 µM (inactive) | > 100 µM (inactive) | > 100 µM (inactive) | > 100 µM (inactive) | > 100 µM (inactive) | 35.9 µM (inactive) | > 100 µM (inactive) | > 100 µM (inactive) | > 100 µM (inactive) | > 100 µM (inactive) | 27.1 µM (inactive) | > 100 µM (inactive) | > 100 µM (inactive)
COc1ccc(C(=O)c2c(-c3ccccc3NC(=O)C(F)(F)F)[nH]c3ccccc23)cc1 | 1.47 µM (inactive) | 4.59 µM (inactive) | 12.2 µM (inactive) | 2.46 µM (inactive) | – | 18.1 µM (inactive) | 5.18 µM (inactive) | 3.97 µM (inactive) | 6.41 µM (inactive) | 5.65 µM (inactive) | 8.28 µM (inactive) | 6.37 µM (inactive) | 10.6 µM (inactive) | 4.02 µM (inactive) | 14.6 µM (inactive) | 5.66 µM (inactive) | 3.16 µM (inactive) | 8.95 µM (inactive) | 4.26 µM (inactive)
CC1(C)OCC2OC3(c4nc(C#N)c(N)o4)OC(C)(C)OC3C2O1 (configuration not stated) | > 100 µM (inactive) | > 100 µM (inactive) | > 100 µM (inactive) | > 100 µM (inactive) | – | > 100 µM (inactive) | > 100 µM (inactive) | > 100 µM (inactive) | > 100 µM (inactive) | > 53.3 µM (inactive) | > 100 µM (inactive) | > 100 µM (inactive) | > 100 µM (inactive) | > 100 µM (inactive) | > 100 µM (inactive) | > 100 µM (inactive) | > 100 µM (inactive) | > 100 µM (inactive) | > 100 µM (inactive)
CC1=CC2C(C(C)C)CC1C1C(=O)OC(=O)C21 (configuration not stated) | 49.8 µM (inactive) | 91 µM (inactive) | 76.7 µM (inactive) | – | > 100 µM (inactive) | 75.3 µM (inactive) | > 100 µM (inactive) | > 100 µM (inactive) | – | 39.7 µM (inactive) | 77.3 µM (inactive) | > 100 µM (inactive) | 14.4 µM (inactive) | > 100 µM (inactive) | > 100 µM (inactive) | > 100 µM (inactive) | > 100 µM (inactive) | 85.5 µM (inactive) | > 100 µM (inactive)
Cc1cccc2c1C(=O)C1(Cc3ccccc3C1=O)C2 (configuration not stated) | 52.8 µM (inactive) | > 100 µM (inactive) | > 100 µM (inactive) | > 100 µM (inactive) | > 100 µM (inactive) | 48.3 µM (inactive) | > 100 µM (inactive) | > 100 µM (inactive) | – | > 100 µM (inactive) | 87.1 µM (inactive) | > 100 µM (inactive) | > 100 µM (inactive) | – | > 100 µM (inactive) | > 100 µM (inactive) | > 100 µM (inactive) | > 100 µM (inactive) | 70.3 µM (inactive)
Cc1cn(C2CC(n3cc(Cn4cc(Br)c(=O)[nH]c4=O)nn3)C(CO)O2)c(=O)[nH]c1=O (configuration not stated) | > 100 µM (inactive) | > 100 µM (inactive) | 52.5 µM (inactive) | 0.668 µM (active) | > 100 µM (inactive) | > 100 µM (inactive) | > 100 µM (inactive) | – | > 100 µM (inactive) | – | 68.2 µM (inactive) | 37.8 µM (inactive) | 80 µM (inactive) | > 100 µM (inactive) | 63.2 µM (inactive) | > 100 µM (inactive) | > 100 µM (inactive) | 89.5 µM (inactive) | –
CCOC(=O)C(NNS(=O)(=O)c1ccc(C)cc1)S(=O)(=O)C(F)(F)C(F)(F)C(F)(F)C(F)(F)F (configuration not stated) | > 100 µM (inactive) | > 100 µM (inactive) | 64 µM (inactive) | > 10 µM (inactive) | – | 97.3 µM (inactive) | > 100 µM (inactive) | > 100 µM (inactive) | > 100 µM (inactive) | > 100 µM (inactive) | > 100 µM (inactive) | > 100 µM (inactive) | > 100 µM (inactive) | > 100 µM (inactive) | > 100 µM (inactive) | > 100 µM (inactive) | > 100 µM (inactive) | > 100 µM (inactive) | > 100 µM (inactive)
COC(=O)c1c(O)ccc2c1c1c(n2Cc2ccc(Cl)cc2Cl)C(=O)c2ccccc2C1 | 40.6 µM (inactive) | 27.1 µM (inactive) | 87.9 µM (inactive) | 23.2 µM (inactive) | 31 µM (inactive) | 93.8 µM (inactive) | > 100 µM (inactive) | 79.6 µM (inactive) | – | 52.1 µM (inactive) | 34 µM (inactive) | 61.7 µM (inactive) | 50.8 µM (inactive) | 60.4 µM (inactive) | 47.9 µM (inactive) | 41.3 µM (inactive) | – | 89.5 µM (inactive) | 33.3 µM (inactive)
Clc1c(Cl)c(Cl)c2nn(C3CCCO3)nc2c1Cl (configuration not stated) | 37 µM (inactive) | – | 50.6 µM (inactive) | 82.2 µM (inactive) | > 100 µM (inactive) | 11.7 µM (inactive) | > 100 µM (inactive) | 49.1 µM (inactive) | 80.4 µM (inactive) | 40.7 µM (inactive) | 42.8 µM (inactive) | 26.7 µM (inactive) | 32.4 µM (inactive) | 68.1 µM (inactive) | > 100 µM (inactive) | 37.4 µM (inactive) | – | 25.5 µM (inactive) | –
COc1ccc(C2=C(Cl)c3cc(OC)c(OC)cc3C2=O)cc1OC | 2.95 µM (inactive) | 12.1 µM (inactive) | 4.22 µM (inactive) | 3.93 µM (inactive) | 5.7 µM (inactive) | 30 µM (inactive) | 18.7 µM (inactive) | 5.38 µM (inactive) | 2.28 µM (inactive) | – | 21.9 µM (inactive) | > 100 µM (inactive) | 17.5 µM (inactive) | 14.4 µM (inactive) | 21 µM (inactive) | 36.9 µM (inactive) | 5.57 µM (inactive) | 15.9 µM (inactive) | –
